In ChEMBL document CHEMBL1157539, “Thousands of chemical starting points for antimalarial lead identification” (Nature, 2010):

test system: Plasmodium falciparum; assay: GSK_TCMDC: Inhibition of Plasmodium falciparum 3D7 in whole erythrocytes, using parasite LDH activity as an index of growth.; format: functional, organism-based; details: Plasmodium falciparum, 3D7

In order of falling XC50:
1. O=C(/C=C/c1ccc(C(F)(F)F)cc1)N1CCc2cc3nccc(N4CCN5CCC[C@H]5C4)c3cc21  1.51 µM
2. CC1CCCCN1Cc1cccc(-c2c[nH]c3nc(NC4CCCC4)ncc23)c1 (stereo not given)  1.31 µM
3. Cc1nnc2sc(-c3cccc(NC(=O)c4ccc(N5CCCCC5)c([N+](=O)[O-])c4)c3)nn12  1.3 µM
4. CCCCCCOc1ccc(/C(N)=N\Cc2ccccc2)c2c1CCCC2  1.27 µM
5. CCCCOP(=O)(OCCCC)C(=Cc1ccc(O)c2ccccc12)P(=O)(OCCCC)OCCCC  1.07 µM
6. CCCCOc1cc(OC)c2ccccc2c1CCNCCCCNCCc1c(OCCCC)cc(OC)c2ccccc12  1.05 µM
7. Cc1cccc(Nc2nc3nonc3nc2Nc2cccc(Cl)c2Cl)c1C  1.03 µM
8. CCNc1cc(C(=O)N[C@@H](Cc2ccccc2)[C@H](O)CNC2(CC(C)C)CC2)cc(N2CCCCS2(=O)=O)c1  1.02 µM
9. Cc1cccc2nc(-c3cccc(-c4cccc(NC(=O)CNC(=O)c5ccc(O)cc5)c4)c3)[nH]c12  0.99 µM
10. Cc1ccc(NC(=O)Nc2ccc(Br)cc2)cc1OCCN(C)C  0.975 µM
11. COc1ccc(CN2CCC(C(=O)Nc3cccc(-c4cccc(Cl)c4)c3)CC2)cc1O  0.975 µM
12. O=C(Nc1cccc(N2CCC(NCc3cccnc3)CC2)c1)c1cccc(C(F)(F)F)c1  0.97 µM
13. Oc1ccccc1CCNC1CCc2ccccc2C1 (stereo not given)  0.928 µM
14. Fc1ccc(C2N=C(SCCSC3=NC(c4ccc(F)cc4)C(c4ccc(F)cc4)N3)NC2c2ccc(F)cc2)cc1 (stereo not given)  0.912 µM
15. O=C(NCC1CC1)C1Cc2c([nH]c3ccc(Br)cc23)C2(CCN(CCc3ccccc3)CC2)N1 (stereo not given)  0.908 µM
16. COc1ccc(CNCc2ccsc2)cc1-c1ccc(S(=O)(=O)NCCN2CCCC2)c(C)c1  0.898 µM
17. CC[C@H](C)CNC(=O)c1ccnc(-c2ccc(CN3CCC(N4CCCC4)CC3)cc2)c1  0.891 µM
18. CCCC(C(=O)OCCN(CC)CC)(c1ccc(Cl)cc1)c1ccc(Cl)cc1  0.88 µM
19. N#Cc1cc(C(=O)c2cc(Br)ccc2O)cn(-c2cc(Cl)cc(Cl)c2)c1=O  0.879 µM
20. N#Cc1cccc(C(=O)NC2CCN(CCCCCNC(=O)/C=C/c3ccc(Cl)c(Cl)c3)CC2)c1  0.876 µM
21. CCOC(=O)c1cnc2c(OC)cc(OC)c(Cl)c2c1Nc1ccccc1  0.871 µM
22. O=C(c1cccc(Cl)c1)N1CCN(c2ccc([N+](=O)[O-])c(NC3CC3)c2)CC1  0.867 µM
23. Cn1cnc(CCNC(=O)c2ccc(-c3ccc(-c4nc5cc(F)ccc5[nH]4)cc3)cc2)c1  0.866 µM
24. O=S(=O)(NCCCN1CCOCC1)c1ccc2nccc(Nc3ccc(Oc4ccccc4)cc3)c2c1  0.855 µM
25. COC(=O)C(C)(C)Cc1c(SC(C)(C)C)c2cc(C(C)C)ccc2n1Cc1ccc(Cl)cc1  0.849 µM
26. COc1cccc(COCC(O)CN(CCc2ccccn2)C(=O)c2ccccc2F)c1 (stereo not given)  0.825 µM
27. O=S(=O)(NCCN1CCCC1)c1ccc(-c2ccc(CNCc3ccsc3)cc2)cc1F  0.81 µM
28. Cc1ccc(CCC(C)NCC(O)c2cccc(Cl)c2)cc1 (stereo not given)  0.804 µM
29. O=C(Nc1cccc(Cl)c1Cl)NC1CCN(Cc2cccc(O)c2)CC1  0.799 µM
30. CCN(CC)S(=O)(=O)c1ccc(Cl)c(C(=O)Nc2ccc3nc(C)sc3c2)c1  0.798 µM
31. COc1ccc2nccc([C@@H](O)CN3CCC(NCc4cc5cccc(OC)c5o4)CC3)c2c1  0.794 µM
32. CC[C@H](C)CNC(=O)c1ccc(-c2cccc(CN3CCC(N4CCCC4)CC3)c2)nc1  0.787 µM
33. CCN(CC)Cc1ccc2c(=O)cc(CCc3cccc(F)c3F)n(CC(=O)N(Cc3ccc(-c4ccc(C(F)(F)F)cc4)cc3)C(C)C)c2c1  0.782 µM
34. O=C(/C=C/c1ccc(Cl)c(Cl)c1)NCCCCCN1CCC(C(=O)Nc2ccc(Cl)cc2)CC1  0.776 µM
35. CCc1c[nH]c2c(N3CCCS3(=O)=O)cc(C(=O)N[C@@H](Cc3ccccc3)[C@H](O)CNC3CCCCC3)cc12  0.774 µM
36. CCCCNC(=O)[C@@H]1CCCN1C(=O)c1ccc(O)c(-c2ccc(Cl)c(Cl)c2)c1  0.751 µM
37. Cc1ccc2c(c1C)NC(=O)C21NN=C(c2ccccc2)S1 (stereo not given)  0.749 µM
38. O=C(/C=C/c1ccc(Cl)c(Cl)c1)NCCCCCN1CCC(NC(=O)Nc2cc(Cl)cc(Cl)c2)CC1  0.722 µM
39. O=C(/C=C/c1ccc(Cl)c(Cl)c1)NCCCCCN1CCN(C(=O)Nc2ccc(C(F)(F)F)cc2)CC1  0.721 µM
40. CN(C)c1cccc(CN2CC=C(c3c[nH]c4ccc(Cl)cc34)CC2)c1  0.663 µM
41. Cc1ccc2[nH]c3c(NCCCN(C)C)ncnc3c2c1  0.65 µM
42. O=C(COc1ccccc1Cc1ccccc1)Nc1cc(Cl)ccc1-n1cncn1  0.64 µM
43. COc1ccc(C2C(C(=O)OC3CCCCC3)=C(C)NC3=C2C(=O)CCC3)cc1Br (stereo not given)  0.579 µM
44. O=C(/C=C/c1ccc(Cl)c(Cl)c1)NCCCCCN1CCC(NC(=O)Nc2ccc(Br)cc2)CC1  0.567 µM
45. O=C(Nc1ccc2c(c1)OCO2)c1cc(-c2cccnc2)nc2ccc(Cl)cc12  0.524 µM
46. CN1CCN(c2cc3c(cc2Cl)CCN3C(=O)Nc2ccc(NC(=O)c3ccc(C(F)(F)F)cc3)cc2)CC1  0.515 µM
47. Cc1cc(=NN=Cc2ccccc2F)c2cc(C(F)(F)F)ccc2[nH]1  0.433 µM
48. CC1(C)C=C(c2ccncc2)c2cc(Cl)ccc2O1  0.43 µM
49. Cc1sc2ncnc(Sc3nnc(N)s3)c2c1C  0.399 µM
50. CN(CCCNCc1ccc2ccccc2c1)CCCNCc1ccc2ccccc2c1  0.391 µM
51. CC(C)(C)c1ccc(CN2CCC(NC(=O)c3ccc(-c4cccc(C(F)(F)F)c4)s3)CC2)cc1  0.359 µM
52. COCc1ccccc1C(=O)NCCOc1cc(C)cc(C)c1  0.353 µM
53. O=C(Nc1ccc(F)c(Cl)c1)c1cc([N+](=O)[O-])cc2cn[nH]c12  0.315 µM
54. CC(C)Cn1cc2c(ccc3nc(N)nc(N)c32)n1  0.303 µM
55. Cc1cc(=O)[nH]c(-n2nc(C)cc2NC(=O)C2(c3ccc(Cl)cc3)CCCC2)n1  0.288 µM
56. CCn1cc(C=C2Oc3c(ccc(O)c3CN3CCCCC3)C2=O)c2ccccc21  0.281 µM
57. N#Cc1cccc(NC(=O)Nc2ccc(-c3cccc(-c4nc5cc(F)ccc5[nH]4)c3)cc2)c1  0.275 µM
58. COc1ccc(CNC2Cc3ccccc3C2)cc1-c1ccc(S(=O)(=O)NCCN2CCCC2)s1  0.195 µM
59. Oc1ccc2[nH]c(-c3cccc(F)c3)nc2c1CN1CCC(N2CCCC2)CC1  0.184 µM
60. Cc1cc(OCc2ccncc2)cc2c1C(=O)CC(C)(C)O2  0.183 µM
61. CS(=O)(=O)c1ccc(CNCc2cccc(-c3cccc(-c4nc5cc(C(F)(F)F)ccc5[nH]4)c3)c2)cc1  0.182 µM
62. COc1cc2nc(NCc3ccccc3)nc(NCc3ccccc3)c2cc1OC  0.151 µM
63. CN(C)CCNc1nccc(N2CCc3ncnc(Nc4ccc(OCc5cccc(F)c5)c(Cl)c4)c3C2)n1  0.138 µM
64. CCn1ccc2c(N3CCCC3=O)cc(C(=O)N[C@@H](Cc3ccccc3)[C@H](O)CNC3CCCCC3)cc21  0.119 µM
65. CCN1CCc2c1cc(C(=O)N[C@@H](Cc1ccccc1)[C@H](O)CNC(C)(C)c1cccc(C(F)(F)F)c1)cc2N1CCCCS1(=O)=O  0.109 µM
66. O=C(/C=C/c1ccc(Cl)cc1)Nc1ccc2nc(CN3CCCC3)ccc2c1  0.0821 µM
67. CCC[C@@H]([C@@H](CC1CCCCC1)C(=O)N[C@H](C(=O)Nc1nccs1)[C@@H](C)OCc1ccccc1)N(O)C=O  0.0782 µM
68. CCCCc1ccc(-c2ccc(-c3c(C)[nH]c(C)c(Br)c3=O)cn2)cc1  0.0578 µM
69. CC[C@H]1CN2CC[C@@H]1C[C@H]2[C@H](O)c1cc(-c2c(C)noc2C)nc2ccc(OC)cc12  0.033 µM
70. CC(=O)NC1=NC(C)(C)N(OCc2ccc(Cl)c(Cl)c2)C(NC(C)=O)=N1  0.0032 µM
